In patent publication US7262197B2, “Phospholipase C inhibitors for use in treating inflammatory disorders” (Janssen Pharmaceutica, N.V, priority 2003, dated 2007):

These molecules were tested against T1, human PLC-β2 (Homo sapiens, UniProt Q00722) (assay: PLC assay using FlashPlates (immobilized [3H]PIP2 substrate, 96-well)). Conditions: hydrolysis of immobilized [3H]PIP2; purified recombinant human PLC-β2 or cytosolic human PLC-β2.
T1 construct: made in house; host or cells: Sf9 cells (Spodoptera frugiperda), recombinant baculovirus
T1 sequence (Q00722 whole entry): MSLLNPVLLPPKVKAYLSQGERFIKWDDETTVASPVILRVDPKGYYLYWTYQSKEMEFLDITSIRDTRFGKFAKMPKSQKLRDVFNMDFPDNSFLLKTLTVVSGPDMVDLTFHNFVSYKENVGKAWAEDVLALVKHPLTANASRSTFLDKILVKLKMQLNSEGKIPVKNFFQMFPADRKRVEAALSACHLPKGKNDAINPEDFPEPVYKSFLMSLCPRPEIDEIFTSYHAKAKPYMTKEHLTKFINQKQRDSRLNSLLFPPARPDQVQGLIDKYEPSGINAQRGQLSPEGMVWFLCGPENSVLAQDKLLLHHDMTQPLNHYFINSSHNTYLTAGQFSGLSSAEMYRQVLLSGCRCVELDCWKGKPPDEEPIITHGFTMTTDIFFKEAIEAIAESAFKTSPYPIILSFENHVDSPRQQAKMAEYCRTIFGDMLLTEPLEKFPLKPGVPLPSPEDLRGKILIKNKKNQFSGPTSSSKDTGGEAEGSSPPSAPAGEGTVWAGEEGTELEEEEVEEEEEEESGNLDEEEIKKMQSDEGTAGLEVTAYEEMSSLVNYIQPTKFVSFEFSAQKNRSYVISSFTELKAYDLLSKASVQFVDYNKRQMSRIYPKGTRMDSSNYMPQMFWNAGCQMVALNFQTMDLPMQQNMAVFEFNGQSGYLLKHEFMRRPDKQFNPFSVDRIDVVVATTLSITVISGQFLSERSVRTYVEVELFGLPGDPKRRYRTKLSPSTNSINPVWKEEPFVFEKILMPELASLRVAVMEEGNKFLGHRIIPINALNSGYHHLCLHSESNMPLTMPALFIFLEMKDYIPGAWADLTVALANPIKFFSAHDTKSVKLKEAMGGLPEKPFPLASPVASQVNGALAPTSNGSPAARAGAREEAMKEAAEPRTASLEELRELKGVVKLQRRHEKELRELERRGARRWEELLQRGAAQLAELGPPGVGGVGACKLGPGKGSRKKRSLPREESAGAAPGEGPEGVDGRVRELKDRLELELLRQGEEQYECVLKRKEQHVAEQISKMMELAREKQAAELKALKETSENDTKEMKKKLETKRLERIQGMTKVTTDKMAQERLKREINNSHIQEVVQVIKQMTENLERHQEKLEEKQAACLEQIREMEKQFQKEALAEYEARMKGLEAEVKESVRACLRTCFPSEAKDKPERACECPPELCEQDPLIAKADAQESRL
Format: biochemical
Text: The hydrolysis of phosphatidylinositol-4,5-bisphosphate (PIP2) by a specific phospholipase C-β2 (PLC-β2) produces two intracellular messengers, diacylglycerol (DAG) and inositol 1,4,5-trisphosphate (IP3), which mediate the activation of protein kinase C and intracellular Ca^2+ release. A conventional organic solvent extraction method is widely used for PLC assays to isolate IP3 from the substrate PIP2. The conventional PLC-β2 assay, however is terminated by addition of acidified organic solvents and subsequent extraction and phase separation. […] Accordingly, a preferred method to test the compounds of the present invention, was developed utilizing a 96-well plate assay for PLC-β2 using immobilized radiolabeled substrate to quantitatively measure the reduction in the substrate level without a need for organic solvent extraction. The automated PLC-β2 assay described herein provides a convenient method for quantitative measurement of phospholipase C activities in a high throughput fashion.
Ninety-six well Phospholipid FlashPlates were coated with 0.2 mL of 50 mM Tris/HCl (pH 7.4), 0.01% Ac-BSA and 50,000 cpm of ^[3H]PIP2 (phosphatidylinositol-4,5-bisphosphate) at 4° C. for 72 h. The wells were aspirated and washed twice with PBS. The reactions were conducted directly in the wells in PLC reaction buffer containing 50 mM Tris/HCl (pH 7.2), 2.75 mM EDTA (pH 7.3), 80 mM KCl, 10 mM LiCl, 0.04% DOC and 2 mM CaCl2 in the absence or presence of the purified recombinant human PLC-β2 (prepared as described hereafter) or cytosolic human PLC-β2 from […]. Reduction of radioactivity was monitored by a Packard TopCount instrument (Packard Instrument Company, Conn., USA).
Suspension cultures of Sf9 cells were maintained in a spinner flask at 27° C. and stirred at 90 rpm. The cells were grown in Grace's media supplemented with 10% (v/v) fetal bovine serum, 3.3 g/l yeastolate, 3.3 g/l lactalbumin hydrosylate, glutamine (6.4 mM final), 50 µg/ml gentamicin, and 50 μg/ml kanamycin. Suspension of Sf9 cells (1.0×10^6 cells/ml) were infected with 5 pfu/cell of recombinant baculovirus encoding PLC-β2 and incubated at 27° C. for 72 h. The cells were collected by centrifugation (500×g, 7 min, 4° C.) and disrupted by hypotonic lysis buffer containing 20 mM Tris/HCl, pH 7.4, 5 mM MgCl2, 2 mM EGTA, 200 βM PMSF, 200 βM benzamidine and 1 βM pepstatin A. The lysate was sonicated on ice and the nuclei and unbroken cells removed by centrifugation (500×g, 5 min, 4° C.). The supernatant was recovered and clarified by centrifugation (34,000 rpm, 60 min, 4° C.). The supernatant was used as a crude cytosolic fraction (Paterson, A., Boyer, J. L., Watts, V. J., Morris, A. J., Price, E. M., Harden, T. K. (1995) Concentration of enzyme-dependent activation of PLC β1 and PLC β2 by Gα11 and βγ subunits. Cellular Signalling 7, 709-720).
Crude cytosol prepared from Sf9 cells expressing PLC-β2 was purified initially by chromatography on a 10 ml column of Q-Sepharose FF, equilibrated in buffer A (25 mM HEPES, pH 7.2, 2 mM DTT, 2 mM EDTA, 2 mM EGTA, 200 μM PMSF, 200 μM benzamidine, 1 μM pepstatin A containing 10 mM NaCl). The column was washed with 20 ml of equilibration buffer and eluted with a 200-ml gradient of 110-410 mM NaCl in buffer A. The fractions containing PLC activity were pooled and diluted with buffer A. The diluted enzyme was applied to a 4 ml column of heparin-SepharoseCL-6B equilibrated in buffer A and the column washed with 70 ml of buffer A. The column was eluted with 80 ml of gradient of 0-1.0 M NaCl in buffer A, the column eluate collected in 3 ml fractions. […]

SMILES | IC50 [µM]
Cc1ccc(C(=O)Nc2cc(C(=O)N3CCNCC3)ccc2N2CCN(C(c3ccccc3)c3ccccc3)CC2)cc1 [Cpd 1, N-[2-[4-(diphenylmethyl)-1-piperazinyl]-5-(1-piperazinylcarbonyl)phenyl]-4-methyl-benzamide] | 12.6
Cc1ccc(S(=O)(=O)Nc2cc(C(=O)N3CCNCC3)ccc2N2CCN(C(c3ccccc3)c3ccccc3)CC2)cc1 [Cpd 5, N-[2-[4-(diphenylmethyl)-1-piperazinyl]-5-(1-piperazinylcarbonyl)phenyl]-4-methyl-benzenesulfonamide] | 10.8
CS(=O)(=O)Nc1cc(C(=O)N2CCNCC2)ccc1N1CCN(C(c2ccccc2)c2ccccc2)CC1 [Cpd 8, N-[2-[4-(diphenylmethyl)-1-piperazinyl]-5-(1-piperazinylcarbonyl)phenyl]-methanesulfonamide] | 9.8
CS(=O)(=O)c1ccc(N2CCN(C(c3ccccc3)c3ccccc3)CC2)c(NC(=O)Nc2ccccc2)c1 [Cpd 9, N-[2-[4-(diphenylmethyl)-1-piperazinyl]-5-(methylsulfonyl)phenyl]-N′-phenyl-urea] | > 10
COC(=O)c1ccc(N2CCN(C(c3ccc(F)cc3)c3ccc(F)cc3)CC2)c(NC(=O)Nc2ccccc2)c1 [Cpd 11, 4-[4-[bis(4-fluorophenyl)methyl]-1-piperazinyl]-3-[[(phenylamino)carbonyl]amino]-benzoic acid methyl ester] | > 10

The next lines start with the values.

IC50 [µM] | SMILES
17.4 | Cc1oc(-c2ccc(Cl)cc2)cc1C(=O)Nc1cc(C(=O)N2CCNCC2)ccc1N1CCN(C(c2ccccc2)c2ccccc2)CC1 [Cpd 2, 5-(4-chlorophenyl)-N-[2-[4-(diphenylmethyl)-1-piperazinyl]-5-(1-piperazinylcarbonyl)phenyl]-2-methyl-3-furancarboxamide]
21.6 | O=C(Nc1cc(C(=O)N2CCNCC2)ccc1N1CCN(C(c2ccccc2)c2ccccc2)CC1)c1ccco1 [Cpd 3, N-[2-[4-(diphenylmethyl)-1-piperazinyl]-5-(1-piperazinylcarbonyl)phenyl]-2-furancarboxamide]
> 25 | CCC(=O)Nc1cc(C(=O)N2CCNCC2)ccc1N1CCN(C(c2ccccc2)c2ccccc2)CC1 [Cpd 4, N-[2-[4-(diphenylmethyl)-1-piperazinyl]-5-(1-piperazinylcarbonyl)phenyl]-propanamide]
8.7 | O=C(c1ccc(N2CCN(C(c3ccccc3)c3ccccc3)CC2)c(NS(=O)(=O)c2ccc(Cl)cc2)c1)N1CCNCC1 [Cpd 6, 4-chloro-N-[2-[4-(diphenylmethyl)-1-piperazinyl]-5-(1-piperazinylcarbonyl)phenyl]-benzenesulfonamide]
> 25 | CCCCS(=O)(=O)Nc1cc(C(=O)N2CCNCC2)ccc1N1CCN(C(c2ccccc2)c2ccccc2)CC1 [Cpd 7, N-[2-[4-(diphenylmethyl)-1-piperazinyl]-5-(1-piperazinylcarbonyl)phenyl]-1-butanesulfonamide]
> 10 | O=C(Nc1ccccc1)Nc1cc(CO)ccc1N1CCN(C(c2ccc(F)cc2)c2ccc(F)cc2)CC1 [Cpd 10, N-[2-[4-[bis(4-fluorophenyl)methyl]-1-piperazinyl]-5-(hydroxymethyl)phenyl]-N′-phenyl-urea]

Same assay, conditions: printed in brackets beside IC50 >10 μM; test concentration not stated

SMILES | inhibition at up to 10 µM [%]
CS(=O)(=O)c1ccc(N2CCN(C(c3ccccc3)c3ccccc3)CC2)c(NC(=O)Nc2ccccc2)c1 [Cpd 9, N-[2-[4-(diphenylmethyl)-1-piperazinyl]-5-(methylsulfonyl)phenyl]-N′-phenyl-urea] | 60
O=C(Nc1ccccc1)Nc1cc(CO)ccc1N1CCN(C(c2ccc(F)cc2)c2ccc(F)cc2)CC1 [Cpd 10, N-[2-[4-[bis(4-fluorophenyl)methyl]-1-piperazinyl]-5-(hydroxymethyl)phenyl]-N′-phenyl-urea] | 47
